Data taken from patent US20060062758A1, “Tight junction modulator peptide PN159 for enhanced mucosal delivery of therapeutic compounds” (Nastech Pharmaceutical Comapny Inc., priority 2004, published 2006).

Assays:
[1] = tested on: EpiAirway™ Cell Membrane (mucosal epithelial cell layer); assay: Transepithelial electrical resistance (TER), EpiAirway in vitro epithelial tissue model; assay type: cell-based; conditions: for TER(x)/TER(159) +/− SEM*: mean values from multiple repeats
Text: One “kit” consists of 24 units.
A. Respiratory airway epithelial cells form tight junctions in vivo as well as in vitro, and thereby restrict the flow of solutes across the tissue. These junctions confer a transepithelial resistance of several hundred ohms×cm^2 in excised airway tissues. In the MatTek EpiAirway™ units, the transepithelial electrical resistance (TER) is reported by the manufacturer to be routinely around 1000 ohms×cm^2. […] The porous membrane-bottomed units without cells, conversely, provide only minimal transmembrane resistance (approximately 5-20 ohms×cm^2).
B. Accurate determinations of TER require that the electrodes of the ohmmeter be positioned over a significant surface area above and below the membrane, and that the distance of the electrodes from the membrane be reproducibly controlled. The method for TER determination recommended by MatTek and employed for all experiments herein employs an “EVOM”™ epithelial voltohmmeter and an “ENDOHM”™ tissue resistance measurement chamber from World Precision Instruments, Inc., Sarasota, Fla.
D. Determinations of TER are made with 1.5 mL of PBS in the chamber and 350 μL of PBS in the membrane-bottomed unit being measured. The top electrode is adjusted to a position just above the membrane of a unit containing no cells (but containing 350 μL of PBS) and then fixed to ensure reproducible positioning. The resistance of a cell-free unit is typically 5-20 ohms×cm^2 (“background resistance”).
G. The unit is gently blotted free of excess PBS on its exterior surface only before being placed into the chamber (containing a fresh 1.5 mL aliquot of PBS). An aliquot of 350 μL PBS is added to the unit before the top electrode is placed on the chamber and the TER is read on the EVOM meter.
I. The units are read in the following sequence: all sham-treated controls, followed by all formulation-treated samples, followed by a second TER reading of each of the sham-treated controls. All TER values are reported as a function of the surface area of the tissue.
TER was calculated as: TER=(R1−Rb)×A Where R1 is resistance of the insert with a membrane, Rb is the resistance of the blank insert, and A is the area of the membrane (0.6 cm^2). The effect of pharmaceutical formulations comprising intranasal delivery-enhancing agents, for example, permeabilizing peptides as measured by TER across the EpiAirway™ Cell Membrane (mucosal epithelial cell layer). Permeabilizing peptides are applied to the EpiAirway™ Cell Membrane at a concentration of 1.0 mM. A decrease in TER value relative to the control value (control=approximately 1000 ohms-cm^2; normalized to 100.) indicates a decrease in cell membrane resistance and an increase in mucosal epithelial cell permeability.
The formulation pH was fixed at 4.5.

[2] = tested on: EpiAirway™ Cell Membrane (mucosal epithelial cell layer); assay: Permeation kinetics across the in vitro epithelial tissue model; conditions: for Perm(x)/Perm(159) +/− SEM*: mean values from multiple repeats; for PTH1-34 permeation: 2 mg/ml PTH, pH 4.5
Description: The EpiAirway™ system was developed by MatTek Corp (Ashland, Mass.) as a model of the pseudostratified epithelium lining the respiratory tract. The epithelial cells are grown on porous membrane-bottomed cell culture inserts at an air-liquid interface, which results in differentiation of the cells to a highly polarized morphology. The apical surface is ciliated with a microvillous ultrastructure and the epithelium produces mucus (the presence of mucin has been confirmed by immunoblotting). The inserts have a diameter of 0.875 cm, providing a surface area of 0.6 cm^2. The cells are plated onto the inserts at the factory approximately three weeks before shipping. One “kit” consists of 24 units.
A. A “kit” of 24 EpiAirway™ units can routinely be employed for evaluating five different formulations, each of which is applied to quadruplicate wells. Each well is employed for determination of permeation kinetics (4 time points), transepithelial electrical resistance (TER). An additional set of wells is employed as controls, which are sham treated during determination of permeation kinetics, but are otherwise handled identically to the test sample-containing units for determinations of transepithelial resistance and viability.
B. In all experiments, the mucosal delivery formulation to be studied is applied to the apical surface of each unit in a volume of 100 μL, which is sufficient to cover the entire apical surface. An appropriate volume of the test formulation at the concentration applied to the apical surface (no more than 100 μL is generally needed) is set aside for subsequent determination of concentration of the active material by ELISA or other designated assay.
D. In order to minimize potential sources of error and avoid any formation of concentration gradients, the units are transferred from one 0.9 mL-containing well to another at each time point in the study. These transfers are made at the following time points, based on a zero time at which the 100 μL volume of test material was applied to the apical surface: 15 minutes, 30 minutes, 60 minutes, and 120 minutes.
F. At the completion of each time point, the medium is removed from the well from which each unit was transferred, and aliquotted into two tubes (one tube receives 700 μL and the other 200 μL) for determination of the concentration of permeated test material and, in the event that the test material is cytotoxic, for release of the cytosolic enzyme, lactate dehydrogenase, from the epithelium. These samples are kept in the refrigerator if the assays are to be conducted within 24 hours, or the samples are subaliquotted and kept frozen at −80° C. until thawed once for assays. Repeated freeze-thaw cycles are to be avoided.
EIA kit (p/n S-1178(EIAH6101) was purchased from Peninsula Laboratories Inc. (Division of BACHEM, San Carlos, Calif., 800-922-1516). 17×120 mm polypropylene conical tubes (p/n 352097, Falcon, Franklin Lakes, N.J.) were used for all sample preparations. Eight standards were used for PTH quantitation. The rest of the assay procedure was the same as the kit inserts.
The instant study was designed to evaluate the effect of PN159 itself or in combination with additional permeation enhancers on PTH permeation. The PN159 concentrations evaluated are 25, 50, and 100 μM. The additional permeation enhancers are 45 mg/ml M-β-CD, 1 mg/ml DDPC, and 1 mg/ml EDTA. Sorbitol was used as a tonicifier (146-190 mM) to adjust the osmolarity of formulations to 220 mOsm/kg. The formulation pH was fixed at 4.5. PTH was chosen as a model peptide in this example. 2 mg/ml PTH was combined with PN159 with or without additional permeation enhancers. The combination was tested using an in vitro epithelial tissue model to monitor PTH permeation, transepithelial electrical resistance (TER), and the cytotoxicity of the formulation by LDH assay.
The effect of PN159 on permeation of MC-4RA was evaluated in this study.

[3] = Example 7, length changes, relative to PN159
[4] = Table 6, D-amino acid substitutions, relative to PN159
[5] = Table 9, hydrophobic faces, relative to PN159

**Q.** How did the “TER reduction (in words)” value ([1]; Example 2, PTH formulation study, applied to apical side) turn out when `CC(C)C[C@H](NC(=O)[C@H](C)NC(=O)[C@H](CCCCN)NC(=O)[C@H](CC(C)C)NC(=O)[C@H](C)NC(=O)[C@H](CC(C)C)NC(=O)[C@H](CCCCN)NC(=O)[C@H](CC(C)C)NC(=O)[C@H](C)NC(=O)[C@H](CC(C)C)NC(=O)[C@@H](N)CCCCN)C(=O)N[C@@H](CCCCN)C(=O)N[C@@H](C)C(=O)N[C@@H](C)C(=O)N[C@@H](CC(C)C)C(=O)N[C@@H](CCCCN)C(=O)N[C@@H](CC(C)C)C(=O)N[C@@H](C)C(N)=O` [PN159] was run?
**A.** The value was “Higher TER reduction was observed with increasing PN159 concentration”.

**Q.** What about the “TER(x)/TER(159) +/− SEM*” value [1, 3] of the same molecule?
**A.** The value was 1.00 +/− 0.14.

**Q.** What about the “TER(x)/TER(159) +/− SEM” value [1, 4] of the same molecule?
**A.** The value was 1.00 +/− 0.14.

**Q.** And the “Relative TER Decrease” value ([1]; Table 8, amino acid substitutions, relative to PN159)?
**A.** The value was 1.0.

**Q.** What about the “TER(x)/TER(159) +/− SEM*” value [1, 5] of the same molecule?
**A.** Its value is 1.00 +/− 0.14.

**Q.** What about the “Perm(x)/Perm(159) +/− SEM*” value [2, 3] of the same molecule?
**A.** Its value is 1.00.

**Q.** What about the “permeation of MC-4RA” value ([2]; PN159 5, 25, 50, 100 μM, 10 mg/ml MC-4RA, 45 mg/ml M-β-CD, pH 4) of the same molecule?
**A.** The value was “significantly enhance epithelial permeation”.

**Q.** What about the PTH1-34 permeation ([2]; PN159 25, 50, 100 μM without additional enhancers) of the same molecule?
**A.** The PTH1-34 permeation was “Significant increase in PTH permeation”.

**Q.** What about the PTH1-34 permeation ([2]; PN159 combined with 45/1/1 mg/ml M-b-CD/DDPC/EDTA) of the same molecule?
**A.** The PTH1-34 permeation was “Additional increase in PTH permeation”.

**Q.** What about the “Perm(x)/Perm(159) +/− SEM” value [2, 4] of the same molecule?
**A.** Its value is 1.00 +/− 0.13.

**Q.** And the “Perm(x)/Perm(159) +/− SEM*” value [2, 5]?
**A.** The value was 1.00 +/− 0.13.
